Measurements published in US11491165B2 (Kinoxis Therapeutics Pty Ltd, priority 2016, dated 2022).

Legend:
[1] = molecular target: T1, vasopressin 1a receptor (V1aR) (Homo sapiens, UniProt P37288); experiment: IP1 accumulation assay, V1aR-expressing HEK-293 cells (agonist and antagonist assessment); format: cell-based; details: for EC50: agonist assessment, IP1, 1 h; for IC50: antagonist assessment vs AVP 25 nM (~EC70), IP1
T1 construct: expressed in transfected cells
Procedure: Cells were subsequently maintained in 10% DMEM containing hygromycin (80 μg/ml), penicillin (100 U/ml), streptomycin (0.1 mg/ml) and blasticidine S hydrochloride (15 μg/ml).
Cells were incubated in tetracycline (2 μg/mL) for 48 h to induce receptor expression. Intracellular IP1 levels induced by activation of the Gq protein coupled to the OTR and V1aR was indexed using the HTRF IP-One kit (CisBio International, Bedford, Mass., USA), according to manufacturer's protocol. For agonist assessment, cells were incubated with logarithmically-spaced concentrations of compounds (1 nM-100 μM) for 1 h prior to the addition of Ab-Cryptate and IP1-d2 for 1 h. The contents of each well were transferred to a white-walled proxy plate (Perkin Elmer) and fluorescence read using a Pherastar Microplate reader (BMG Labtech, Cary, N.C., USA). […] IP1 levels in the presence of compounds and OT or AVP were expressed as a percentage of levels seen with OT or AVP in the presence of vehicle control. Concentration response curves for OT and AVP were determined after 5 min incubation in drug or vehicle, and the data fitted using GraphPad PRISM to a 4-parameter logistic equation of the form y=Min+(Max−Min)/(1+10^((logEC50−X)*n)) where X is drug concentration and n is the H-ill slope. Data represent the mean±s.d. of at least 3 independent experiments, each in duplicate.

[2] = molecular target: T2, oxytocin receptor (OXTR), hOTR (Homo sapiens, UniProt P30559); experiment: Competition radioligand binding, [3H]-oxytocin, OTR-expressing HEK293 membranes; details: [3H]-oxytocin 10 nM, 90 min 4 °C
T2 construct: expressed in transfected cells
T2 sequence (P30559 1-389): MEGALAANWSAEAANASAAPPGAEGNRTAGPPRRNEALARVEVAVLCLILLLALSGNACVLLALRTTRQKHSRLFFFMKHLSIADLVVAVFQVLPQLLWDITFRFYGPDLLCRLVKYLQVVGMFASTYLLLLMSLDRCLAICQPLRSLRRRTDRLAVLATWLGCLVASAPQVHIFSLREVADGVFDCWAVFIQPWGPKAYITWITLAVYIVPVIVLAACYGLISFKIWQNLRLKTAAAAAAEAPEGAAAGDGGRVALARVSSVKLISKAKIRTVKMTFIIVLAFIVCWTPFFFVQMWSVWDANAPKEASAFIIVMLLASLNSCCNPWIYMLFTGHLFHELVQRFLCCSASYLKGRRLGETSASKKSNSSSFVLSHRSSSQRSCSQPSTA
Procedure: (§1) Human embryonic kidney cells (HEK-293) transfected to stably express untagged hOTR and V1aR using the Flp-In™ T-REx™ system (Life Technologies, Carlsbad, Calif. USA) were established as reported in Jorgensen et al., 2016 (the entire disclosure of which is hereby incorporated by reference). Cells were subsequently maintained in 10% DMEM containing hygromycin (80 μg/ml), penicillin (100 U/ml), streptomycin (0.1 mg/ml) and blasticidine S hydrochloride (15 μg/ml).
(§2) To induce receptor expression, cells were incubated with tetracycline (2 μg/mL) for 48 h. PBS with 5 mM EDTA (pH 7.4) was used to detach OTR and V1aR-expressing HEK293 cells from culture flasks. Harvested cells were centrifuged at 1200 g for 5 min and were resuspended in homogenization buffer (50 mM HEPES, 5 mM EDTA, 5 mM MgCl2; pH 7.4) prior to homogenization using an Ultra-Turrax homogeniser (IKA, Wilmington, N.C., USA). Homogenates were centrifuged three times for 30 min at 48.000 g, 4° C. for 30 min and membrane pellets resuspended in 50 mM Tris HCl, 5 mM MgCl2 (pH 7.4). A bicinchoninic acid assay was used according to the manufacturer's protocol (Bio-Rad, Hercules. Calif., USA) to measure final protein concentration. Membranes were stored at −80° C. until use in competition radioligand binding studies.
(§3) Reactions were incubated for 90 min at 4° C. to reach equilibrium, and terminated by rapid filtration over glass fibre filters (Whatman GF/A […]; Millipore, Darmstadt, Germany), and washing with ice-cold reaction buffer. Filters were dried, then incubated with Microscint 0 (Perkin Elmer) for 30 min before radioactivity was detected with a Microbeta2 2450 microplate-reader (Perkin Elmer). […] Specific binding in the presence of compounds was expressed as a percentage of specific binding in the presence of vehicle control. A sum-of-squares F-test was used to compare the goodness of fit of one-site, two-site and sigmoidal with variable hill slope binding models, and to calculate Ki's using Graphpad Prism (Graphpad Software, La Jolla, Calif., USA).

[3] = molecular target: T1, vasopressin 1a receptor (V1aR); experiment: Competition radioligand binding, [3H]-vasopressin, V1aR-expressing HEK293 membranes; details: [3H]-vasopressin 2 nM, 90 min 4 °C
Procedure: as §1, §2, §3

[4] = molecular target: T2, oxytocin receptor (OXTR), hOTR; experiment: IP1 accumulation assay, OTR-expressing HEK-293 cells (agonist and antagonist assessment); format: cell-based; details: for Emax: HEK293, read-out: OXTR Emax (% OXT); for EC50: IP1, 1 h; for OV function: ratio of OXTR functional potency to V1aR functional potency, 'OT only' = function at OXTR only
Procedure: as §1
OTR or V1aR-expressing HEK-293 cells were seeded onto poly-L-lysine (100 μg/ml)-coated 384-well plates at a density of 8.75×10^3 cells per well. Cells were incubated in tetracycline (2 μg/mL) for 48 h to induce receptor expression. Intracellular IP1 levels induced by activation of the Gq protein coupled to the OTR and V1aR was indexed using the HTRF IP-One kit (CisBio International, Bedford, Mass., USA), according to manufacturer's protocol. For agonist assessment, cells were incubated with logarithmically-spaced concentrations of compounds (1 nM-100 μM) for 1 h prior to the addition of Ab-Cryptate and IP1-d2 for 1 h. The contents of each well were transferred to a white-walled proxy plate (Perkin Elmer) and fluorescence read using a Pherastar Microplate reader (BMG Labtech, Cary, N.C., USA). For antagonist assessment, cells were incubated an ˜EC70 concentration of OT (30 nM) or AVP (25 nM) mixed with compounds (1 nM-100 μM) or vehicle control for 1 h. IP1 levels in the presence of compounds and OT or AVP were expressed as a percentage of levels seen with OT or AVP in the presence of vehicle control. Concentration response curves for OT and AVP were determined after 5 min incubation in drug or vehicle, and the data fitted using GraphPad PRISM to a 4-parameter logistic equation of the form y=Min+(Max−Min)/(1+10^((logEC50−X)*n)) where X is drug concentration and n is the H-ill slope. Data represent the mean±s.d. of at least 3 independent experiments, each in duplicate.

T1 sequence (P37288 whole entry): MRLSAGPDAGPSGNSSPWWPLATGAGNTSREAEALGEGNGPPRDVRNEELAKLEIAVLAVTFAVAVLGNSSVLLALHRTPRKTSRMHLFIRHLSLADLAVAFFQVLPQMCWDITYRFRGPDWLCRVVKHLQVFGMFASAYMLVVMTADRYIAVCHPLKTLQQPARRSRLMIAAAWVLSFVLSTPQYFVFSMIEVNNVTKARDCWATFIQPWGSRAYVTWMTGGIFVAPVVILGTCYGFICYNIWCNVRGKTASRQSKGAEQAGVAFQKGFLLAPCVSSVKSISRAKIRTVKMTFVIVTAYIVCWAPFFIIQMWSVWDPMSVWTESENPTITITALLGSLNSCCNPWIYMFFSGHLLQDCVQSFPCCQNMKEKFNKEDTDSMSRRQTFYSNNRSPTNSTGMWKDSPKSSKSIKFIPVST

With COc1ccccc1C(=O)N1Cc2cnn(C)c2Nc2ccccc21 [WJ0659, (2-Methoxyphenyl)(1-methyl-4,10-dihydrobenzo[b]pyrazolo[3,4-e][1,4]diazepin-5 (1H)-yl)methanone] the melting point was 281 to 282 °C (dec.).
With Cn1ncc2c1Nc1ccccc1N(C(=O)c1ccc(C(=O)O)cc1)C2 [TAR-C077, 4-(1-methyl-1,4,5,10-tetrahydrobenzo[b]pyrazolo[3,4-e][1,4]diazepine-5-carbonyl)benzoic acid] the melting point was > 300 °C.
Cn1ncc2c1Nc1ccccc1N(C(=O)c1cccc3ccccc13)C2 [TRGA-89, (1-methyl-4,10-dihydrobenzo[b]pyrazolo[3,4-e][1,4]diazepin-5 (1H)-yl)(naphthalen-1-YI)methanone] showed a melting point of 231 to 233 °C.
Molecule Cn1ncc2c1Nc1ccccc1N(C(=O)c1cc(OCc3ccccc3)cc(OCc3ccccc3)c1)C2 [Example 9, (3,5-Bis(benzyloxy)phenyl)(1-methyl-4,10-dihydrobenzo[b]pyrazolo[3,4-e][1,4]diazepin-5 (1H)-yl)methanone] has a melting point of 221 to 224 °C.
In the case of Cn1ncc2c1Nc1ccccc1N(C(=O)c1ccccc1Br)C2 [WJ0822, (2-Bromophenyl)(1-methyl-4,10-dihydrobenzo[b]pyrazolo[3,4-e][1,4]diazepin-5 (1H)-yl)methanone], the melting point is reported as 244 to 246 °C.
For Cn1ncc2c1Nc1ccccc1N(C(=O)C1CCCCC1)C2 [CA6 (KA), cyclohexyl(1-methyl-4,10-dihydrobenzo[b]pyrazolo[3,4-e][1,4]diazepin-5 (1H)-yl)methanone], the EC50 [1] was > 10000 nM, the IC50 [1] was > 10000 nM and the Ki [2] was 1080 ± 323 nM. The Ki [3] was 236 ± 75 nM, the Emax [4] was 17% and the EC50 ([4]; agonist assessment) was 481 ± 61 nM. The OV function [4] was <0.04.
Cc1cc(C(=O)N2Cc3cnn(C)c3Nc3ccccc32)ccc1CNC(=O)N1CCN(Cc2cc(O)cc(O)c2)CC1 [WAY, reference compound] gave an Emax [4] of 45% and an OV function [4] of 0.69.
For Cn1ncc2c1Nc1ccccc1N(C(=O)c1ccc3c(c1)OCO3)C2 [TRGA95, benzo[d][1,3]dioxol-5-yl(1-methyl-4,10-dihydrobenzo[b]pyrazolo[3,4-e][1,4]diazepin-5 (1H)-yl)methanone], the EC50 [1] was > 10000 nM, the IC50 [1] was 1530 ± 444 nM and the Ki [2] was 159 ± 32 nM. It also gave a Ki [3] of 18 ± 1 nM, an Emax [4] of 13% and an EC50 ([4]; agonist assessment) of 91 ± 25 nM. For the same molecule, the OV function [4] was 0.06.
With Cn1ncc2c1Nc1ccccc1N(C(=O)c1ccc(O)cc1)C2 [TAR-B049, (4-hydroxyphenyl)(1-methyl-4,10-dihydrobenzo[b]pyrazolo[3,4-e][1,4]diazepin-5 (1H)-yl)methanone] the melting point was > 300 °C.
With Cn1ncc2c1Nc1ccccc1N(C(=O)C1C(C)(C)C1(C)C)C2 [TRGA111, (1-methyl-4,10-dihydrobenzo[b]pyrazolo[3,4-e][1,4]diazepin-5 (1H)-yl)(2,2,3,3-tetramethylcyclopropyl)methanone] the EC50 [1] was > 10000 nM, the IC50 [1] was > 10000 nM and the Ki [2] was > 10000 nM. For the same molecule, the Ki [3] was > 10000 nM, the EC50 ([4]; agonist assessment) was > 10000 nM and the IC50 ([4]; antagonist assessment vs OT 30 nM (~EC70), IP1) was > 10000 nM.
Cn1ncc2c1Nc1ccccc1N(C(=O)c1ccc(Br)cc1)C2 [WJ0820, (4-Bromophenyl)(1-methyl-4,10-dihydrobenzo[b]pyrazolo[3,4-e][1,4]diazepin-5 (1H)-yl)methanone] showed a melting point of 249 to 251 °C.
Cn1ncc2c1Nc1ccccc1N(C(=O)C13C4C5C6C4C1C6C53)C2 (stereo not shown) [QB] showed a melting point of 194 to 203 °C.
For Cc1cc(C(=O)N2Cc3cnn(C)c3Nc3ccccc32)ccc1CN [WJ0761], the EC50 [1] was > 10000 nM, the IC50 [1] was > 10000 nM and the Ki [2] was > 10000 nM. It also gave a Ki [3] of 44.7 ± 5 nM, an Emax [4] of 8% and an EC50 ([4]; agonist assessment) of 9190 ± 1620 nM. For the same molecule, the OV function [4] was <0.92.
With CC1CCC(C(=O)N2Cc3cnn(C)c3Nc3ccccc32)CC1 (stereo not shown) [TAR-C41, (1-methyl-4,10-dihydrobenzo[b]pyrazolo[3,4-e][1,4]diazepin-5 (1H)-yl)(4-methylcyclohexyl)methanone] the melting point was 234 to 239 °C.
COC(=O)C12CCC(C(=O)N3Cc4cnn(C)c4Nc4ccccc43)(CC1)CC2 [BcO-MC, methyl 4-(1-methyl-1,4,5,10-tetrahydrobenzo[b]pyrazolo[3,4-e][1,4]diazepine-5-carbonyl)bicyclo[2.2.2]octane-1-carboxylate] gave a melting point of 198 to 211 °C.
In the case of CCCCCCOc1ccc(C(=O)N2Cc3cnn(C)c3Nc3ccccc32)cc1 [TAR-B085, (4-(hexyloxy)phenyl)(1-methyl-4,10-dihydrobenzo[b]pyrazolo[3,4-e][1,4]diazepin-5 (1H)-yl)methanone], the melting point is reported as 204 to 206 °C.
Cn1ncc2c1Nc1ccccc1N(C(=O)c1ccc3ccccc3c1)C2 [TRGA-81, (1-methyl-4,10-dihydrobenzo[b]pyrazolo[3,4-e][1,4]diazepin-5 (1H)-yl)(naphthalen-2-yl)methanone] showed a melting point of 228 to 243 °C.
With Cc1cccc(C(=O)N2Cc3cnn(C)c3Nc3ccccc32)c1 [WJ0823, (1-Methyl-4,10-dihydrobenzo[b]pyrazolo[3,4-e][1,4]diazepin-5 (1H)-yl)(m-tolyl)methanone] the EC50 [1] was > 10000 nM, the IC50 [1] was > 10000 nM and the Ki [2] was 553 ± 155 nM. For the same molecule, the melting point was 254 to 256 °C, the Emax [4] was 16.8% and the “EC50 (OXTR agonist potency, mean ± s.d.)” value ([4]; agonist assessment, IP1) was 420 ± 37 nM. The EC50 ([4]; agonist assessment) was 407 ± 102 nM.
For Cn1ncc2c1Nc1ccccc1N(C(=O)c1cccc(Br)c1)C2 [WJ0821, (3-Bromophenyl)(1-methyl-4,10-dihydrobenzo[b]pyrazolo[3,4-e][1,4]diazepin-5 (1H)-yl)methanone], the melting point was 218 to 220 °C.
